This is an account of results in patent US8193203B2, “Bicyclic compounds having activity at the CXCR4 receptor” (Allergan, Inc., priority 2008, dated 2012).

The target in this test is T1, human CXCR4 receptor (Homo sapiens, UniProt P61073).
T1 construct: expressed in transfected cells
Briefly: Measurement of intracellular Ca+2 responses (FLIPR), antagonism of the SDF-1α response. To be noted: for IC50: HEK-Gqi5 cells stably expressing human CXCR4, Fluo-4 FLIPR, antagonism of SDF-1α 1.9 nM (EC65); for CXCR4 (% Inh): percent antagonism of SDF-1α 1.9 nM (EC65) response, HEK-Gqi5 human CXCR4 cells, value in brackets. Type of test: cell-based. On the procedure:
Measurement of Intracellular Ca^+2 Responses for CXCR4 Compounds
HEK-Gqi5 cells stably expressing the human CXCR4 receptor were utilized for these studies. The growth media for the CXCR4 receptor expressing cell line was DMEM high glucose medium supplemented with 10% fetal bovine serum (FBS), 1% antibiotic-antimycotic, 50 ug/ml hygromycin B, and 400 μg/ml geneticin. Ten thousand cells per well were plated into 384-well poly-D-lysine coated plates one day prior to use. On the day of the experiment, the cells were washed twice with Hank's Balanced Salt Solution supplemented with 20 mM hepes (HBSS/hepes buffer). The cells were then dye loaded with 2 uM Fluo-4 diluted in the HBSS/Hepes buffer and incubated at 37° C. for 40 minutes. Extracellular dye was removed by washing the cell plates four times prior to placing the plates in the FLIPR (Fluorometric Imaging Plate Reader, Molecular Devices). Ligands were diluted in HBSS/Hepes buffer and prepared in 384-well microplates. The positive control, stromal-cell derived factor-1 (SDF-1α), was diluted in HBSS/Hepes buffer with 4 mg/ml fatty acid free bovine serum albumin. Two drug additions were made by the FLIPR. The first drug addition was the test drug in concentrations ranging from 2.44 nM to 40,000 nM. After this addition, fluorescent measurements were taken. Any calcium release in response to this drug addition represents agonist activity of the compounds. The second drug addition was SDF-1α at a final concentration of 1.9 nM (EC65). Fluorescence measurements were also taken after this second drug addition and were used to determine the ability of the test compounds to antagonize the SDF-1α response. Results were expressed as EC50 and efficacy values, as well as IC50 and percent antagonism values. As controls, SDF-1α (CXCR4 agonist) and AMD3100 (CXCR4 antagonist) dose-response curves were also determined in each study.

T1 sequence (P61073 whole entry): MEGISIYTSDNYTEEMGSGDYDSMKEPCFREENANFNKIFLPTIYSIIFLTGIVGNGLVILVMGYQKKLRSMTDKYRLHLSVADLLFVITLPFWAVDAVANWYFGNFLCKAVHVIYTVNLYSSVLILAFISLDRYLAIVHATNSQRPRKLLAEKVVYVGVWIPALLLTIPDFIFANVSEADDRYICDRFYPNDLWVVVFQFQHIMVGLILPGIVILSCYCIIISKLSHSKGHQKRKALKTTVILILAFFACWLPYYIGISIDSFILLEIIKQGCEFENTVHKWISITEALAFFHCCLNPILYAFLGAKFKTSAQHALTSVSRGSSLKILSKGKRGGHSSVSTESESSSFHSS

With `CCN(CC)CCCNc1nc(NC2CCN(Cc3ccccc3N(C)C)CC2)c2cc(OC)c(OC)cc2n1` [Compound 30, N2-(3-(Diethylamino)propyl)-N4-(1-(2-(dimethylamino)benzyl)piperidin-4-yl)-6,7-dimethoxyquinazoline-2,4-diamine], the “CXCR4 (% Inh)” value turned out to be 100%. For the same molecule, under “values in nM”, inhibition was half-maximal at 270 nM (IC50).
For `CCN(CC)C(=O)CCNc1nc(NC2CCN(Cc3ccccc3N(C)C)CC2)c2cc(OC)c(OC)cc2n1` [Compound 31], the “CXCR4 (% Inh)” value stood at 92%. Further, under “values given in μM”, the IC50 (usually the midpoint of a concentration-inhibition curve) turned out to be 2400 nM.
Consider `CCN(CC)CCNc1nc(NC2CCN(Cc3ccccc3N(C)C)CC2)c2cc(OC)c(OC)cc2n1` [Compound 32], for which the “CXCR4 (% Inh)” value is on record as 90%. This molecule returned an IC50 (values in nM) of 343 nM.
Take `COc1cc2nc(NCCCN3CCCC3)nc(NC3CCN(Cc4ccccc4N(C)C)CC3)c2cc1OC` [Compound 33]: the “CXCR4 (% Inh)” value was 93%. The molecule also registered an IC50 (values in nM) of 617 nM.
The matching figures for `CCN(CC)CCCNc1nc(NC2CCN(Cc3ccccc3N(C)C)CC2)c2ccccc2n1` [Compound 35, N2-(3-(Diethylamino)propyl)-N4-(1-(2-(dimethylamino)benzyl)piperidin-4-yl)quinazoline-2,4-diamine]: 90% and 330 nM.
For `CCN(CC)CCNc1nc(NC2CCN(Cc3ccccc3N(C)C)CC2)c2ccccc2n1` [Compound 36, N2-(2-(Diethylamino)ethyl)-N4-(1-(2-(dimethylamino)benzyl)piperidin-4-yl)quinazoline-2,4-diamine] the same measures were 90% and 800 nM.
For `CCN(CC)CCNc1nc(NC2CCN(Cc3c(OC)cccc3N(C)C)CC2)c2cc(OC)c(OC)cc2n1` [Compound 41, N2-(2-(Diethylamino)ethyl)-N4-(1-(2-(dimethylamino)-6-methoxybenzyl)piperidin-4-yl)-6,7-dimethoxyquinazoline-2,4-diamine] the same measures were 100% and 360 nM.
With `CCN(CC)CCCNc1nc(NC2CCN(Cc3c(OC)cccc3N(C)C)CC2)c2cc(OC)c(OC)cc2n1` [Compound 42, N2-(3-(Diethylamino)propyl)-N4-(1-(2-(dimethylamino)-6-methoxybenzyl)piperidin-4-yl)-6,7-dimethoxyquinazoline-2,4-diamine], the “CXCR4 (% Inh)” value is listed as 98%. Half-maximal inhibition (values in nM) (IC50) required 179 nM.
For the molecule `CCN(CC)CCCNc1nc(NC2CCN(Cc3c(OC)cccc3N(C)C)CC2)c2ccccc2n1` [Compound 48, N2-(3-(Diethylamino)propyl)-N4-(1-(2-(dimethylamino)-6-methoxybenzyl)piperidin-4-yl)quinazoline-2,4-diamine], the “CXCR4 (% Inh)” value is 100%. Further, half-maximal inhibition (values in nM) (IC50) was put at 150 nM.
As to `CCN(CC)CCCNc1nc(NC2CCN(Cc3ccccc3N3CCCCC3)CC2)c2cc(OC)c(OC)cc2n1` [Compound 50], the “CXCR4 (% Inh)” value came to 86%. For the setting “values given in μM”, this molecule registered an IC50 of 6700 nM.
Regarding `CCN(CC)CCCNc1nc(NC2CCN(Cc3ccccc3N3CCCC3)CC2)c2cc(OC)c(OC)cc2n1` [Compound 51], the “CXCR4 (% Inh)” value is given as 92%. For the setting “values given in μM”, this molecule came in with an IC50 of 1100 nM.
For the molecule `COc1cc2nc(N3CCCCCC3)nc(NC3CCN(Cc4c(OC)cccc4N(C)C)CC3)c2cc1OC` [Compound 52, 2-(Azepan-1-yl)-N-(1-(2-(dimethylamino)-6-methoxybenzyl)piperidin-4-yl)-6,7-dimethoxyquinazolin-4-amine], the “CXCR4 (% Inh)” value is 90%. Half-maximal inhibition (values in nM) (IC50) was put at 730 nM.
For the molecule `CCN(CC)CCCNc1nc(NC2CCN(Cc3ccccc3[N+](=O)[O-])CC2)c2cc(OC)c(OC)cc2n1` [Compound 65, N2-(3-(Diethylamino)propyl)-6,7-dimethoxy-N4-(1-(2-nitrobenzyl)piperidin-4-yl)quinazoline-2,4-diamine], the “CXCR4 (% Inh)” value is on record as 93%. For the setting “values given in μM”, this molecule gave an IC50 of 4900 nM.
For `CCN(CC)CCCCNc1nc(NC2CCN(Cc3c(OC)cccc3N(C)C)CC2)c2ccccc2n1` [Compound 66, N2-(4-(Diethylamino)butyl)-N4-(1-(2-(dimethylamino)-6-methoxybenzyl)piperidin-4-yl)quinazoline-2,4-diamine], the “CXCR4 (% Inh)” value stood at 93%. For the same molecule, the half-maximal inhibitory concentration (IC50) (values in nM) came out at 200 nM.
For `CCN(CC)CCCCCNc1nc(NC2CCN(Cc3c(OC)cccc3N(C)C)CC2)c2ccccc2n1` [Compound 67, N2-(5-(Diethylamino)pentyl)-N4-(1-(2-(dimethylamino)-6-methoxybenzyl)piperidin-4-yl)quinazoline-2,4-diamine], the “CXCR4 (% Inh)” value was determined as 88%. Under “values given in μM”, half-maximal inhibition (IC50) required 1900 nM.
Consider `COc1cccc(N(C)C)c1CN1CCC(Nc2nc(NCCCN(C)C)nc3ccccc23)CC1` [Compound 68, N4-(1-(2-(Dimethylamino)-6-methoxybenzyl)piperidin-4-yl)-N2-(3-(dimethylamino)propyl)quinazoline-2,4-diamine], for which the “CXCR4 (% Inh)” value worked out at 95%. The molecule further displayed a half-inhibitory concentration (IC50) (values in nM) of 41 nM.
For `COc1cc2nc(NCCCN(C)C)nc(NC3CCN(Cc4c(OCCN(C)C)cccc4N(C)C)CC3)c2cc1OC` [Compound 76, N4-(1-(2-(Dimethylamino)-6-(2-(dimethylamino)ethoxy)benzyl)piperidin-4-yl)-N-2-(3-(dimethylamino)propyl)-6,7-dimethoxyquinazoline-2,4-diamine], the “CXCR4 (% Inh)” value was found to be 94%. In addition, for the setting “values in nM”, the IC50 came to 19 nM.
In the case of `COc1cc2nc(NCCCN(C)C)nc(NC3CCN(Cc4c(OC)cccc4N(C)C)CC3)c2cc1OC` [Compound 78], the “CXCR4 (% Inh)” value was found to be 100%. For the setting “values in nM”, this molecule registered a concentration for half-maximal inhibition (IC50) of 283 nM.
Turning to `COc1cccc(N(C)C)c1CN1CCC(Nc2nc(NCCCN)nc3ccccc23)CC1` [Compound 80, N˜2˜-(3-Aminopropyl)-N˜4˜-{1-[2-(dimethylamino)-6-methoxybenzyl]piperidin-4-yl}quinazoline-2,4-diamine], the “CXCR4 (% Inh)” value worked out at 94%. Besides, the IC50 (values in nM) was 130 nM.
As for `CCOP(=O)(CCCNc1nc(NC2CCN(Cc3c(OC)cccc3N(C)C)CC2)c2ccccc2n1)OCC` [Compound 81, Diethyl 3-(4-(1-(2-(Dimethylamino)-6-methoxybenzyl)piperidin-4-ylamino)quinazolin-2-ylamino)propylphosphonate], the “CXCR4 (% Inh)” value is on record as 99%. The molecule also showed an IC50 (values given in μM) of 1600 nM.
For `COc1cccc(N(C)C)c1CN1CCC(Nc2nc(NCc3ccccn3)nc3ccccc23)CC1` [Compound 84, N4-(1-(2-(Dimethylamino)-6-methoxybenzyl)piperidin-4-yl)-N2-(pyridin-2-ylmethyl)quinazoline-2,4-diamine], the “CXCR4 (% Inh)” value stood at 95%. Moreover, the IC50 (values in nM) stood at 574 nM.
For `COc1cccc(N(C)C)c1CN1CCC(Nc2nc(N3CCCC(C(N)=O)C3)nc3ccccc23)CC1` (stereo not shown) [Compound 85, 1-(4-(1-(2-(Dimethylamino)-6-methoxybenzyl)piperidin-4-ylamino)quinazolin-2-yl)piperidine-3-carboxamide], the “CXCR4 (% Inh)” value is recorded as 93%. Moreover, half-maximal inhibition (values given in μM) (IC50) required 4900 nM.
For `COc1cccc(N(C)C)c1CN1CCC(Nc2nc(N3CCN(C(C)=O)CC3)nc3ccccc23)CC1` [Compound 86, 1-(4-(4-(1-(2-(Dimethylamino)-6-methoxybenzyl)piperidin-4-ylamino)quinazolin-2-yl)piperazin-1-yl)ethanone] the same measures were 86% and 3500 nM.
